Patent publication US10624992B2, “Human airway stem cells in lung epithelial engineering” (The General Hospital Corporation, priority 2016, dated 2020)

What was measured:
[1] = tested on: primary epithelial basal cells (BESCs); experiment: Notch inhibitor treatment of primary epithelial basal cells in vitro (qPCR, immunofluorescence); format: cell-based, human; details: 5 days in vitro, compared to No Treatment
Procedure: (§1) Donor lung peripheral tissue (1-inch cubed) was washed in αMEM and then chopped into ˜¼ inch pieces with scissors and digested in 0.1 mg/ml DNAse (Sigma) and 1.4 mg/ml Pronase (Roche, 11459643001) for 24 hours/4° C. (52). Digested tissue was plated onto uncoated culture flasks in SAGM for 30 minutes/37° C., then non-adherent cells transferred and adhered to human Collagen-IV (Sigma-Aldrich C7521)-coated flasks. Epithelial cells were maintained in SAGM (Lonza, CC-3118) and passaged at 80% confluent (approximately 3-5 days/passage). For cells treated with γ-secretase inhibitors (1) 3-Isobutyl-1-methylxanthine (100 μg/ml IBMX, Sigma-Aldrich, 15879) and (2) N-[(3,5-Difluorophenyl)acetyl]-L-alanyl-2-phenyl]glycine-1,1-dimethylethyl ester (50 μg/ml DAPT, Selleck Chemicals, S2215), media was changed daily. Primary endothelial cells were isolated from the large vessels of donor lungs using the same digestion protocol. The endothelial population was sorted for CD31^+ purity by flow cytometry, and maintained and expanded on Gelatin coated flasks in EGM2 (Lonza, CC-3162) until utilized for human lung recellularization (See FIGS. 7A-B). RNA was isolated using the RNEasy Plus (Qiagen). cDNA was transcribed using the Superscript III kit (Invitrogen). Quantitative gene expression was analyzed using Taqman probes and the OneStep Plus system (Applied Biosystems). […]

[2] = tested on: BESCs on acellular rat lung scaffolds; experiment: Rat lung scaffold recellularization and ex vivo culture with Notch inhibitors; format: cell-based, human; details: DAPT 50 nM in vitro 5 days, then 5 days ex vivo on rat lung scaffold without inhibitors
Procedure: Primary lung epithelial cells (passage 3) were harvested from 2-D culture, counted, and re-introduced to the scaffold airways in solution (20 ml) by gravity. Continuous media perfusion through the pulmonary artery was maintained at 4 ml/min by peristaltic pump and changed daily.
RNA was isolated using the RNEasy Plus (Qiagen). cDNA was transcribed using the Superscript III kit (Invitrogen). Quantitative gene expression was analyzed using Taqman probes and the OneStep Plus system (Applied Biosystems). Expression was normalized to β-Actin expression and relative to cadaveric lung tissue control samples.
Primary Antibodies (1:100): p63 (Santa Cruz, sc-25268), Krt5 (Abcam, ab24647), E-cadherin (BD, 610181), Surfactant Protein-B (Millipore, AB3430), pro-Surfactant Protein-C (Abcam, ab3786), Aquaporin-5 (Abcam, ab92320), Acetylated α-Tubulin (Abcam, ab24610), α2β1 integrin (Abcam, ab24697), α3β1 integrin (Abcam, ab24696), and CD31 (Daki, M082301-2). Secondary antibodies (1:400): Alexafluor 488 and 594 (Life Technologies).

[3] = tested on: primary human lung epithelial basal cells; experiment: Effect of ROCK inhibitor on cell phenotype and senescence during cell isolation and passage; format: cell-based
Procedure: as §1, with “FIGS. 8A-C: Effect of ROCK Inhibitor on Cell Phenotype and Senescence. […] Donor” for “Donor”, “RNA was isolated using the RNEasy Plus (Qiagen). cDNA was transcribed using the Superscript III kit (Invitrogen).” left out

[4] = tested on: BESCs on decellularized rat lung scaffolds; experiment: Ex vivo rat lung recellularization on scaffolds pre-coated with TN-C and/or FBN-2; format: cell-based, human; details: Day 3 and 7
Procedure: Decellularized lung scaffolds were pre-coated with (A) PBS control, (B) TN-C, 10 μg/ml, (C) FBN-2, (10 μg/ml each of N- and C-terminal fragment of FBN-2), or (D) TN-C+FBN-2 (10 μg/ml each of TN-C and of N- and C-terminal fragment of FBN-2), by delivery through the trachea. Solution was recycled to the trachea for 90 min at 37° C. A total of 20×10^6 primary lung epithelial cells (passage 3) were then delivered to the scaffold airways in 20 ml of SAGM by gravity. Constant media perfusion of SAGM through the pulmonary artery was maintained at 4 ml/min (pressure 15-20 mmHg) and changed daily. […]
mRNA was isolated (Qiagen RNeasy Plus Kit) and transcribed to cDNA (Invitrogen SuperScript III). Gene expression was analyzed using Taqman probes and the OneStep Plus system (Applied Biosystems). Each biological sample was analyzed in experimental replicate (n=2 repeated wells of the qPCR reaction) and the Ct value of each replicate was averaged and handed as n=1 unique biologic sample. Expression for each sample was normalized to β-Actin (ACTA1) gene expression (ΔCt) and relative to cadaveric peripheral lung tissue control samples (ΔΔCt), with fold change calculated by 2-ΔΔCt (Livak and Schmittgen, Methods. 2001; 25(4):402-8). A total of n=3 unique biological samples were analyzed for each reported experiment. […]

BESCs [5] = experiment: In vitro migration assay on protein coatings; format: cell-based, human; details: over 3 h, compared to Collagen IV coating alone, p<0.001; mixture of N- and C-terminal halves of FBN-2
Procedure: For migration assay, after coating as above, a small inset (MIDI) was added to the wells prior to cell seeding. A total of 1×10^4 cells were seeded within the insert and incubated for 12 h, before the insert was removed. Bright-field images were taken every 30 min for 180 min to track cell migration. Images were analyzed with ImageJ software (Schneider et al., Nature methods. 2012; 9(7):671-5) to quantify the change in cell-free area.

BESCs [6] = experiment: In vitro culture of BESCs on Collagen IV plates supplemented with TN-C and/or FBN-2; format: cell-based, human; details: 7 d culture, compared to uncoated or Collagen IV coated wells
Procedure: 24-well plates were pre-coated with human Collagen IV (10 μg/ml) Sigma-Aldrich C7521) for 2 h at 37° C. After removal of the collagen solution, TN-C (10 μg/ml, R&D 3358-TC-050) or the recombinant N-terminal half (FBN-2-N) or C-terminal half (FBN-2-C) of human FBN-2 (10 μg/ml) (Lin et al., The Journal of biological chemistry. 2002; 277(52):50795-804) were then added to select wells, and incubated for 2 h at 37° C. A total of 1×10^5 BESC were subsequently plated to each well and cultured for 7 d in SAGM.
mRNA was isolated (Qiagen RNeasy Plus Kit) and transcribed to cDNA (Invitrogen SuperScript III). Gene expression was analyzed using Taqman probes and the OneStep Plus system (Applied Biosystems). Each biological sample was analyzed in experimental replicate (n=2 repeated wells of the qPCR reaction) and the Ct value of each replicate was averaged and handed as n=1 unique biologic sample. Expression for each sample was normalized to β-Actin (ACTA1) gene expression (ΔCt) and relative to cadaveric peripheral lung tissue control samples (ΔΔCt), with fold change calculated by 2-ΔΔCt (Livak and Schmittgen, Methods. 2001; 25(4):402-8). A total of n=3 unique biological samples were analyzed for each reported experiment.
After de-paraffinization and rehydration, 5 μm tissue section were permeabilized with 0.1% Triton X-100 for intracellular antigens, when appropriate. […]

## C[C@H](NC(=O)Cc1cc(F)cc(F)c1)C(=O)NC(C(=O)OC(C)(C)C)c1ccccc1 (stereo partly drawn) [DAPT]
[1]
  SP-B and SP-C gene expression (type II pneumocyte markers): ineffective alone
[2]
  distal type2-like fate after in vitro pre-treatment and inhibitor withdrawal: maintained a distal type2-like fate

## CC(C)Cn1c(=O)n(C)c(=O)c2[nH]cnc21 [IBMX, 3-Isobutyl-1-methylxanthine]
[1]
  SP-B and SP-C gene expression (type II pneumocyte markers): ineffective alone

## C[C@@H](N)[C@H]1CC[C@H](C(=O)Nc2ccncc2)CC1 [Y-27632]
[3]; during cell isolation and passage
  basal cell population, proliferation (Ki67, PCNA) and senescence (CDKN2A): did not enhance the basal cell population, or alter proliferation (Ki67, PCNA) or senescence
[3]; passage 1 and passage 4, n=3 cell lines, t-test
  gene expression, treated vs untreated: No significant differences

## TN-C: Tenascin-C glycoprotein (R&D 3358-TC-050), used as coating at 10 μg/ml
[4]
  Ki67 expression of Krt5+ BESCs (immunofluorescence): significant increase in proliferation
BESCs [5]
  BESC migration rate (change in cell-free area): Significantly higher rates of BESC migration
BESCs [6]
  proliferation (gene expression): significantly greater proliferation
  senescence (gene expression): less senescence
